# Experimental data published in patent publication US8349897B2, “Biphenyloxyacetic acid derivatives for the treatment of respiratory disease” (Astrazeneca AB, priority 2005, dated 2013).
# Molecular target: T1, rhCRTh2 (Homo sapiens, UniProt Q9Y5Y4)
# T1 construct: expressed in transfected cells; host or cells: HEK cells (membrane preparation)
# T1 sequence (Q9Y5Y4 1-395): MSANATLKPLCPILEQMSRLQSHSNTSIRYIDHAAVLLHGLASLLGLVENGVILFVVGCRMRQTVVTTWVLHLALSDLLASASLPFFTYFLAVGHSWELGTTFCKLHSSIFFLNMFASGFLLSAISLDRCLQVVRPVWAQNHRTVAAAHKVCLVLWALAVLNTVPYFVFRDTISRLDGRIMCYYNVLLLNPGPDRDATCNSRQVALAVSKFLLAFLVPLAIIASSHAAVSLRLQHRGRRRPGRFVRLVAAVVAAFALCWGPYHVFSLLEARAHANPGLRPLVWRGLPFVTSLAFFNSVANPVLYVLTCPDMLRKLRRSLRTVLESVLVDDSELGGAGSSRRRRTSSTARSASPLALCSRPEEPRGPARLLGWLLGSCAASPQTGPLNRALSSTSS
# Assay: Ligand binding assay ([3H]PGD2 SPA, HEK cell membranes)
# Conditions: [3H]PGD2 displacement, membranes of HEK cells expressing rhCRTh2/Gα16, SPA beads, 2 hours room temperature; read-out: pIC50 value (converted)
# Method: [^3H]PGD2 was purchased from Perkin Elmer Life Sciences with a specific activity of 100-210 Ci/mmol. All other chemicals were of analytical grade.
# HEK cells expressing rhCRTh2/Gα16 were routinely maintained in DMEM containing 10% Foetal Bovine Serum (HyClone), 1 mg/ml geneticin, 2 mM L-glutamine and 1% non-essential amino acids. For the preparation of membranes, the adherent transfected HEKcells were grown to confluence in two layer tissue culture factories (Fisher, catalogue number TKT-170-070E). Maximal levels of receptor expression were induced by addition of […] sodium butyrate for the last 18 hours of culture. The adherent cells were washed once with phosphate buffered saline (PBS, 50 ml per cell factory) and detached by the addition of 50 ml per cell factory of ice-cold membrane homogenisation buffer [20 mM HEPES (pH 7.4), 0.1 mM dithiothreitol, 1 mM EDTA, 0.1 mM phenyl methyl sulphonyl fluoride and 100 μg/ml bacitracin]. […] The final pellet was re-suspended in 4 ml of membrane homogenisation buffer per cell factory used and the protein content determined. […]
# All assays were performed in Corning clear bottomed, white 96-well NBS plates (Fisher). […] (The optimum coating concentrations were determined for each batch of membranes) The beads were pelleted by centrifugation (800×g for 7 minutes at 4° C.), washed once with assay buffer (50 mM HEPES pH 7.4 containing 5 mM magnesium chloride) and finally re-suspended in assay buffer at a bead concentration of 10 mg/ml.
# Each assay contained 20 μl of 6.25 nM [^3H]PGD2, 20 μl membrane saturated SPA beads both in assay buffer and 10 μl of compound solution or 13,14-dihydro-15-keto prostaglandin D2 (DK-PGD2, for determination of non-specific binding, Cayman chemical company). […] The assay plate was incubated at room temperature for 2 hours and counted on a Wallac Microbeta liquid scintillation counter (1 minute per well).
row,IC50 [nM],Structure (SMILES)
1,1.58,"C[C@H](Oc1ccc(F)cc1-c1ccc(S(=O)(=O)c2ccccc2)cc1Cl)C(=O)O [Example 15, (2S)-2-{[2′-chloro-5-fluoro-4′-(phenylsulfonyl)biphenyl-2-yl]oxy}propanoic acid]"
2,1.58,"C[C@H](Oc1ccc(Cl)cc1-c1ccc(S(=O)(=O)c2ccc(F)cc2)cc1)C(=O)O [Example 8, (2S)-2-({5-chloro-4′-[(4-fluorophenyl)sulfonyl]biphenyl-2-yl}oxy)propanoic acid]"
3,3.16,"O=C(O)COc1ccc(F)cc1-c1ccc(S(=O)(=O)c2ccccc2)c(C(F)(F)F)c1 [Example 7, {[5-fluoro-4′-(phenylsulfonyl)-3′-(trifluoromethyl)biphenyl-2-yl]oxy}acetic acid]"
